Assay results as given in the OligoGym collection.
These antisense oligonucleotides have a phosphorothioate backbone; sugars and methylation of C are not fully specified.

Target: ABCB1
Conditions: ASO
Also: test concentration or dose not given here.

| Sequence | remaining target (mRNA or protein) (fraction of control) |
| --- | --- |
| TGACAGTTGGTTTCTTTCC | 0.85 |
| GAGCTTGGAAGAGCCGCTACT | 0.54 |
| ACTGACAGTTGGTTTCTTT | 0.84 |
| CGGTCCCCTTCAAGATCCAT | 0 |
| CCCGACCTCGCGCTCCTTGG | 0.15 |
| ATACTGACAGTTGGTTTCT | 0.65 |
| AGTTCTTCTTTGCTGCTCCA | 0.7 |
| CGTCCTTGGAACGGCCACCA | 0.18 |
| TCTTCTTTGCTCCTCCATTG | 0.67 |
| GACCTCGCGCTCCTTGGAAC | 0.17 |
| TTTTATTGTTCAGTTTAAAAA | 0.92 |
| AAAAGTTCTTCTTTGCTGCT | 0.92 |
| CATCCCGACCTCGCGCTCCT | 0 |
| TTGCGGTCCCCTTCAAGATC | 0.09 |
| TCCGACTTTAGTGGAAAGAC | 0.9 |
| TCCCCTTCAAGATCCATCCC | 0.2 |
| TACTCCGACTTTAGTGGAAA | 0.84 |
| CGCGTCCTTGGAACGGCCAC | 0.15 |
| TTGAGCTTGGAAGAGCCGCTA | 0.54 |
| ACTTTTATTGTTCAGTTTAAA | 0.97 |

Target: IGF2
Conditions: ASO

| Sequence | remaining target (mRNA or protein) (fraction of control) |
| --- | --- |
| GGAACTCAGTGGAACTCAGG | 0.11 |
| CTCTTCTGCCCTGTTTTGTC | 0.31 |
| CCCACCTCCATCACCATGGC | 0.52 |
| TACAAGATAGTACAGTACGC | 0.33 |
| TAAATAAGGACCAGCTCCCA | 0.41 |
| TCACCATGGCCAGCCCCAGC | 0.81 |
| GTGAAGGCAGACCACCGACC | 0.27 |
| AGCCCCAGCGACCCCAGCGT | ≥ 1 |
| ACCGCGCTTTCCTCCCGCCG | 0.53 |
| CGATCTTGTGCGGTGTCCTG | 0.86 |
| CGCGCATGTCATCGGGAATG | 0.31 |

Target: PRKCA
Conditions: ASO

| Sequence | remaining target (mRNA or protein) (fraction of control) |
| --- | --- |
| TCAAATGGAGGCTGCCCGGC | 0.66 |
| GGATTCACTTCCACTGCGGG | 0.82 |
| CGCCGTGGAGTCGTTGCCCG | 0.54 |
| CACTGCGGGGAGGGCTGGGG | ≥ 1 |
| GAGACCCTGAACAGTTGATC | 0.61 |
| ATGGGGTGCACAAACTGGGG | 0.94 |
| AAGAGAGAGACCCTGAACAG | 0.62 |
| CTGCCTCAGCGCCCCTTTGC | 0.47 |
| CCCGGGAAAACGTCAGCCAT | 0.52 |
| GCAGAGGCTGGGGACATTGA | 0.81 |
| ATTTTCAGGCCTCCATATGG | 0.82 |
| AGTCGGTGCAGTGGCTGGAG | 0.88 |
| AGCCGTGGCCTTAAAATTTT | 0.84 |
| GTTCTCGCTGGTGAGTTTCA | 0.52 |
| GGGCTGGGGAGGTGTTTGTT | 0.95 |
| GATAATGTTCTTGGTTGTAA | 0.85 |
| CCCCAACCACCTCTTGCTCC | 0.39 |
| GTCAGCCATGGTCCCCCCCC | 0.46 |
| AAAACGTCAGCCATGGTCCC | 0.39 |
| TGGAATCAGACACAAGCCGT | 0.89 |

Target: RAF1
Conditions: ASO

| Sequence | remaining target (mRNA or protein) (fraction of control) |
| --- | --- |
| TTGAGCATGGGGAATGTGGG | 0.63 |
| CAGCACTGCAAATGGCTTCC | 0.8 |
| TCCTCCTCCCCGCGGCGGGT | 0.95 |
| GGTGCAAAGTCAACTAGAAG | 0.88 |
| CTGGCTTCTCCTCCTCCCCT | 0.95 |
| GATGCAGCTTAAACAATTCT | 0.99 |
| GTCTGGCGCTGCACCACTCT | 0.35 |
| TGTAGCCAACAGCTGGGGCT | 0.96 |
| GCCGAGTGCCTTGCCTGGAA | 0.98 |
| CAAGAAAACCTGTATTCCTG | ≥ 1 |
| TTCTCGCCCGCTCCTCCTCC | 0.65 |
| TTGTCAGGTGCAATAAAAAC | 0.88 |
| TTAAAATAACATAATTGAGG | 0.93 |
| ACCATCAACATCCACTTGCG | ≥ 1 |
| CCCTGTATGTGCTCCATTGA | 0.38 |
| ATTCTTAAACCTGAGGGAGC | ≥ 1 |
| GCCGCCCCAACGTCCTGTCG | 0.42 |
| TCAGGGCTGGACTGCCTGCT | 0.52 |
| TTCGGCGGCAGCTTCTCGCC | 0.37 |
| CCTGCTGGCTTCTCCTCCTC | 0.92 |
| CTGATTTCCAAAATCCCATG | 0.26 |
| TTCTCCTCCTCCCCTGGCAG | 0.8 |
| CGCTCCTCCTCCCCGCGGCG | 0.35 |
| TGAAGGTGAGCTGGAGCCAT | ≥ 1 |
| CGGGAGGCGGTCACATTCGG | 0.25 |
| CTGGGCTGTTTGGTGCCTTA | 0.8 |
| CTGAGAGGGCTGAGATGCGG | ≥ 1 |

Target: IL11
Conditions: ASO

| Sequence | remaining target (mRNA or protein) (fraction of control) |
| --- | --- |
| TTGGACGGACGGCCGTGGAG | 0.75 |

Target: Agtr1a (rat)
Conditions: ASO

| Sequence | remaining target (mRNA or protein) (fraction of control) |
| --- | --- |
| GCGGTCGATGCTGAGACACG | 0.35 |
| ACACGTGTGAAGGAACACAC | 0.51 |
| TTCAGGCAGTTGTTAAAATA | 0.86 |
| AGACACGTGTGAAGGAACAC | 0.5 |
| GGGAGCGTCGAATTCCGAGA | 0.21 |
| AGCGTCGAATTCCGAGACTC | 0.29 |
| GGTCGATGCTGAGACACGTG | 0.49 |
| TGGTGATGGGCATGGCAGTG | 0.21 |
| GGTATAGCTGGTGAGAATGAT | 0.46 |
| AAGGGTATAGCTGGTGAGAAT | 0.39 |
| GGGTTCAGGCAGTTGTTAAA | 0.29 |
| GTGATGGGCATGGCAGTGTC | 0.29 |
| GGATGCGGTCGATGCTGAGA | 0.39 |
| GGCGTAGAGGTTGAAGCTCA | 0.27 |
| AGAGGGTTCAGGCAGTTGTT | 0.3 |
| TAAAGGGTATAGCTGGTGAGA | 0.35 |
| ATGCGGTCGATGCTGAGACA | 0.75 |
| AACAGAGGGTTCAGGCAGTT | 0.29 |
| CAGCAGAAGAGTTAAGGGCC | 0.37 |
| GATGGTGATGGGCATGGCAG | 0.32 |
| ATAGCTGGTGAGAATGATAAG | 0.44 |
| GCAGAAGAGTTAAGGGCCAT | 0.32 |
| AGAAGAGTTAAGGGCCATTT | 0.46 |
| GTCGAATTCCGAGACTCATA | 0.25 |
| CTGGCGTAGAGGTTGAAGCT | 0.41 |

Target: ABCC1
Conditions: ASO

| Sequence | remaining target (mRNA or protein) (fraction of control) |
| --- | --- |
| TGCTGTTCGTGCCCCCGCCG | 0.51 |
| ACCGGATGGCGGTGGCTGCT | 0.73 |
| GCTCACACCAAGCCGGCGTC | 0.78 |
| GCGGCGATGGGCGTGGCCAG | 0.73 |
| AGGCCCTGCAGTTCTGACCA | 0.95 |
| CCGGTGGCGCGGGCGGCGGC | 0.69 |
| TCGGAGCCATCGGCGCTGCA | 0.8 |
| AGCCCCGGAGCGCCATGCCG | 0.74 |
| CGGGGCCGCAACGCCGCCTG | 0.95 |
| GGTGATCGGGCCCGGTTGCT | 0.68 |
| GGCACCCACACGAGGACCGT | 0.79 |
| CAGGAGGTCCGATGGGGCGC | 0.95 |
| CGCATCTCTGTCTCTCCTGG | 0.77 |
| CTCCTCCCTGGGCGCTGGCA | 0.74 |
| CGCGCTGCTTCTGGCCCCCA | 0.56 |
